Laboratory results published in ChEMBL document CHEMBL3352081, “Wnt/β-Catenin Signaling Pathway Inhibitors: A Promising Cancer Therapy” (ACS Med Chem Lett, 2014).

Test system: HT-29
Test: Inhibition of Wnt pathway in human HT29 cells after 24 hrs by TCF-driven luciferase reporter gene assay
Format: cell-based
Conditions: HT-29, 24 h

Row | IC50 | SMILES
1 | < 50 nM | O=C(Nc1ccc(C(F)(F)F)cn1)C1CCN(c2ccnc3nsnc23)CC1
2 | < 500 nM | O=C(Nc1cc2ccccc2cn1)C1CCN(c2ccnc3nsnc23)CC1

Continued, molecule first:

Row | SMILES | IC50
3 | O=C(Nc1ccccc1F)C1CCN(c2ccnc3nsnc23)CC1 | < 5000 nM
4 | Cc1ccccc1CNC(=O)C1CCN(c2ccnc3nsnc23)CC1 | < 100 nM
5 | c1ccc(N2C[C@@H]3C[C@H]2CN3c2ccnc3nsnc23)cc1 | < 50 nM
6 | c1ccc(N2C[C@@H]3C[C@H]2CN3c2ncnc3nsnc23)nc1 | < 1000 nM
